Assay results as given in patent US20250353873A1, “COMPOUNDS AND METHODS FOR MODULATING APOE EXPRESSION” (Ionis Pharmaceuticals, Inc., priority 2024, published 2025).
Where “and” joins values, the source holds several entries; their conditions need not be identical. Equal values may be shown once. Strand notation (5' to 3'): a small letter for the sugar, then the base; units joined by * are phosphorothioate-linked, units joined directly phosphodiester-linked; [ ] holds rarer units or linkages, { } end groups; capitals alone tell only the bases. [PN] = cyclic guanidine phosphoramidate internucleoside linkage; [ms] = mesyl phosphoramidate linkage; e = 2'-O-(2-methoxyethyl) (MOE); k = constrained ethyl (cEt); [5mC] = 5-methylcytosine; d = 2'-deoxy (DNA)

Legend:
human APOE RNA [1] = test: Activity in APOE C57BL/6NTac-Apoeem7250 knock-in mice, single ICV bolus, 8 weeks (Example 11); type: in vivo; settings: single ICV bolus 300 μg, 8 weeks post treatment, normalized to mouse Ppia
Summary of the method: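 Human APOE knock-in C57BL/6NTac mice given one ICV bolus of 300 μg oligonucleotide; PBS-dosed group as control. At 8 weeks, cortex and spinal cord RNA measured by qRT-PCR (human probe RTS3073), normalized to mouse Ppia, expressed as % of PBS control.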

human APOE RNA [2] = test: Duration of action study in APOE C57BL/6NTac-Apoeem7250 knock-in mice (Example 16); type: in vivo; settings: 300 μg ICV
Experimental: Modified oligonucleotides described above were tested in the APOE C57BL/6NTac-Apoeem7250 knock-in mouse model described above.
APOE C57BL/6NTac-Apoeem7250 knock-in mice were divided into groups of 2-4 mice each. Each mouse received a single intracerebroventricular (ICV) bolus of 300 μg of modified oligonucleotide. A group of 2-4 mice received a single ICV bolus with PBS as a negative control.
Mice were sacrificed at various timepoints as indicated in the table below and RNA was extracted from cortical brain tissue and spinal cord for quantitative real-time RT-PCR analysis of RNA expression of APOE using primer probe set RTS3073 (described herein above). APOE RNA levels were normalized to mouse Ppia. Mouse Ppia was amplified using primer probe set m_cyclo24 (described herein above). Results are presented as percent human APOE RNA relative to the amount of human APOE RNA in PBS treated animals, (% control). Each experiment is identified in separate tables below.

human APOE RNA [3] = test: Activity in APOE C57BL/6NTac-Apoeem7250 knock-in mice, single ICV bolus, 16 weeks (Example 12); type: in vivo; settings: single ICV bolus 300 μg, 16 weeks post treatment, normalized to mouse Ppia
Summary of the method: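 Knock-in mice (3-4 per group) received one ICV bolus of 300 μg oligonucleotide, PBS as control. After 16 weeks, human APOE RNA in cortex and spinal cord measured by RT-qPCR, normalized to mouse Ppia, and reported as % of PBS control.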

human APOE RNA [4] = test: Activity in APOE C57BL/6NTac-Apoeem7250 knock-in mice, single ICV bolus, 4 weeks (Example 10); type: in vivo; settings: single ICV bolus 300 μg, 4 weeks post treatment, normalized to mouse Ppia
Summary of the method: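 Knock-in mice (2–4 per group) received one 300 μg ICV bolus of oligonucleotide or PBS. After four weeks, human APOE RNA in cortex and spinal cord measured by RT-qPCR (primer probe set RTS3073), normalized to mouse Ppia, expressed as % of PBS controls.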

human APOE RNA [5] = test: Dose-dependent inhibition of human APOE RNA in HepG2 cells, electroporation, 50,000 cells per well, RT-PCR normalized to GAPDH (Example 4, Tables 8-10); type: cell-based; settings: HepG2, electroporation, 24-hour treatment
Summary of the method: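 HepG2 cells, 50,000 per well, electroporated with modified oligonucleotide at various concentrations. APOE RNA quantified by RT-PCR with human primer probe set RTS3073, normalized to GAPDH. Values are percent APOE RNA relative to untreated control cells.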

Substance	APOE RNA (% control) Cortex (human APOE RNA [2]; 14 days post-dose) [% control]	APOE RNA (% control) Cortex (human APOE RNA [2]; 112 days post-dose) [% control]	APOE RNA (% control) Spinal Cord (human APOE RNA [2]; 14 days post-dose) [% control]	APOE RNA (% control) Spinal Cord (human APOE RNA [2]; 112 days post-dose) [% control]	APOE RNA (% control) Cortex (human APOE RNA [2]; 140 days post-dose) [% control]	APOE RNA (% control) Spinal Cord (human APOE RNA [2]; 140 days post-dose) [% control]	APOE RNA (% control) Cortex (human APOE RNA [4]) [% control]	APOE RNA (% control) Spinal Cord (human APOE RNA [4]) [% control]	APOE RNA (% UTC) (human APOE RNA [5]; 5 nM)	APOE RNA (% UTC) (human APOE RNA [5]; 13 nM)	APOE RNA (% UTC) (human APOE RNA [5]; 33 nM)	APOE RNA (% UTC) (human APOE RNA [5]; 82 nM)	APOE RNA (% UTC) (human APOE RNA [5]; 205 nM)	APOE RNA (% UTC) (human APOE RNA [5]; 512 nM)	APOE RNA (% UTC) (human APOE RNA [5]; 1,280 nM)	APOE RNA (% UTC) (human APOE RNA [5]; 3,200 nM)	APOE RNA (% UTC) (human APOE RNA [5]; 8,000 nM)	APOE RNA (% UTC) (human APOE RNA [5]; 20,000 nM)	IC50 (human APOE RNA [5]) [µM]	also measured
1652901: 6-10-4 MOE gapmer TTGGTGAATCTTTATTAAAC, linkages sooooossssssssssoss (antisense eT*eTeGeGeTeGdA*dA*dT*d[5mC]*dT*dT*dT*dA*dT*dT*eAeA*eA*e[5mC]) [compound 1652901]	43	90	33	51	–	–	–	–	–	–	–	–	–	–	–	–	–	–	–	APOE RNA (% control) Cortex (human APOE RNA [1]; cortex): 47 % control and 49 % control; APOE RNA (% control) Spinal Cord (human APOE RNA [1]; spinal cord): 18 % control and 27 % control; APOE RNA (% control) Cortex (human APOE RNA [3]; cortex): 104 % control; APOE RNA (% control) Spinal Cord (human APOE RNA [3]; spinal cord): 61 % control
1721309: 6-10-4 MOE gapmer CTTGGTGAATCTTTATTAAA, linkages s[pn][pn][pn]oossssssssss[pn]ss (e[5mC]*eT[PN]eT[PN]eG[PN]eGeTdG*dA*dA*dT*d[5mC]*dT*dT*dT*dA*dT*eT[PN]eA*eA*eA) [compound 1721309]	45	93	34	39	–	–	–	–	–	–	–	–	–	–	–	–	–	–	–	–
1721310: 6-10-4 MOE gapmer CTTGGTGAATCTTTATTAAA, linkages s[pn][pn][pn]oossssssszzs[pn]ss (e[5mC]*eT[PN]eT[PN]eG[PN]eGeTdG*dA*dA*dT*d[5mC]*dT*dT*dT[ms]dA[ms]dT*eT[PN]eA*eA*eA) [compound 1721310]	35	88	38	65	–	–	–	–	–	–	–	–	–	–	–	–	–	–	–	–
1746789 (k[5mC]*dT[ms]kT*dG[ms]kG*dT[ms]dG[ms]dA[ms]dA[ms]dT*d[5mC]*dT*dT*dT*dA[ms]dT*kT*kA*dA[ms]kA; antisense) [Compound 1746789]	–	63	–	83	75	80	60	41	98	106	84	102	76	64	37	19	10	4	0.83	–
1746790 (k[5mC]*dT[ms]kT*dG[ms]dG[ms]kT*dG[ms]dA[ms]dA[ms]dT*d[5mC]*dT*dT*dT*dA[ms]dT*kT*kA*dA[ms]kA; antisense) [Compound 1746790]	–	75	–	62	77	108	53	61	104	133	94	112	89	63	20	24	15	8	0.75	–
1746801 (k[5mC]*dT[ms]dT[ms]kG*kG*dT[ms]dG[ms]dA[ms]dA[ms]dT*d[5mC]*dT*dT*dT*dA[ms]dT*kT*dA[ms]kA*kA; antisense) [Compound 1746801]	–	47	–	70	67	138	58	44	93	98	114	99	76	56	33	11	14	2	0.67	–
1746803 (k[5mC]*dT[ms]dT[ms]kG*dG[ms]kT*dG[ms]dA[ms]dA[ms]dT*d[5mC]*dT*dT*dT*dA[ms]dT*kT*dA[ms]kA*kA; antisense) [Compound 1746803]	–	54	–	74	73	82	51	39	93	83	84	114	68	61	31	29	22	39	1.1	–
1746810 (k[5mC]*dT[ms]kT*dG[ms]dG[ms]kT*dG[ms]dA[ms]dA[ms]dT*d[5mC]*dT*dT*dT*dA[ms]dT*dT[ms]kA*kA*kA; antisense) [Compound 1746810]	–	63	–	80	82	106	56	80	109	106	95	77	68	46	36	13	8	5	0.49	–
1746811 (k[5mC]*dT[ms]dT[ms]kG*kG*dT[ms]dG[ms]dA[ms]dA[ms]dT*d[5mC]*dT*dT*dT*dA[ms]dT*dT[ms]kA*kA*kA; antisense) [Compound 1746811]	–	71	–	95	89	103	61	62	99	86	83	95	70	54	47	23	12	5	0.74	–
1753989 (k[5mC]*dT[ms]kT*dG[ms]kG*dT*dG[ms]dA[ms]dA[ms]dT*d[5mC]*dT*dT*dT*dA[ms]kT*dT[ms]kA*dA[ms]kA; antisense) [Compound 1753989]	–	58	–	117	72	79	54	49	113	108	102	79	94	76	49	33	25	16	1.67	–
